ChEMBL document CHEMBL1129726, “Tetrazole NK1 receptor antagonists: The identification of an exceptionally potent orally active antiemetic compound” (Bioorg Med Chem Lett, 1996)

Assays:
[1] = target: Substance-P receptor (Homo sapiens, UniProt P25103); experiment: Inhibition of [3H]-substance P binding to human NK1 receptor expressed in chinese hamster ovary cells; format: cell-based, CHO
[2] = test system: Mustela putorius furo; experiment: In vivo antiemetic activity against radiation-induced emesis in ferret.; format: functional

Chain of Substance-P receptor (P25103 whole entry): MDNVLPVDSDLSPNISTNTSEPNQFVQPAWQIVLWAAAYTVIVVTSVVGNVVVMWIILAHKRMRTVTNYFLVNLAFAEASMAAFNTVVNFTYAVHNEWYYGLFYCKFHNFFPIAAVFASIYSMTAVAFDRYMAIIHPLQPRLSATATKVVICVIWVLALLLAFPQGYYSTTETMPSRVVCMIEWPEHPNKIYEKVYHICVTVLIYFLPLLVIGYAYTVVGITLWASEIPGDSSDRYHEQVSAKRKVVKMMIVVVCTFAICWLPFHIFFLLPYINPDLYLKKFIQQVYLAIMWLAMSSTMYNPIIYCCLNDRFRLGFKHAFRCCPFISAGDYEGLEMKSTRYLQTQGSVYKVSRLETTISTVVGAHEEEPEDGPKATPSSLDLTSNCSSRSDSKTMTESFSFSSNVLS

Row | Structure (SMILES) | Ki [1] [nM] | ED90 [2] [mg/kg]
1 | COc1ccc(-n2nnnc2C)cc1CN[C@H]1CCCN[C@H]1c1ccccc1.Cl.Cl | 0.0501 | 0.15
2 | CCCc1nnnn1-c1ccc(OC)c(CN[C@H]2CCCN[C@H]2c2ccccc2)c1.Cl.Cl | 0.0398 | > 3
3 | COc1ccc(-n2nnnc2N)cc1CN[C@H]1CCCN[C@H]1c1ccccc1 | 1 | 
4 | COc1ccc(-n2nnnc2S(C)(=O)=O)cc1CN[C@H]1CCCN[C@H]1c1ccccc1.Cl.Cl | 0.0631 | > 1
5 | CCN(CC)c1nnnn1-c1ccc(OC)c(CN[C@H]2CCCN[C@H]2c2ccccc2)c1 | 2 | 
6 | CCc1nnnn1-c1ccc(OC)c(CN[C@H]2CCCN[C@H]2c2ccccc2)c1.Cl.Cl | 0.0501 | 0.3
7 | COc1ccc(-n2nnnc2SC)cc1CN[C@H]1CCCN[C@H]1c1ccccc1.Cl.Cl | 0.0398 | 1
8 | COc1ccc(-n2cnnn2)cc1CN[C@H]1CCCN[C@H]1c1ccccc1.Cl.Cl | 0.0398 | 0.1
9 | COc1ccc(-n2nnnc2-c2ccccc2)cc1CN[C@H]1CCCN[C@H]1c1ccccc1.Cl.Cl | 0.398 | > 1
10 | COc1ccc(-n2nnnc2NC(C)=O)cc1CN[C@H]1CCCN[C@H]1c1ccccc1 | 0.251 | 
11 | COc1ccc(-n2nnnc2C2CC2)cc1CN[C@H]1CCCN[C@H]1c1ccccc1.Cl.Cl | 0.0794 | > 1
12 | COc1ccc(-n2nnnc2C(F)(F)F)cc1CN[C@H]1CCCN[C@H]1c1ccccc1.Cl.Cl [VOFOPITANT DIHYDROCHLORIDE] | 0.0251 | 0.03
